Target: T1, binding of KRAS^G12C to SOS1 (Homo sapiens, UniProt Q07889)
T1 construct: Tag1 (unspecified)
T1 sequence (Q07889 1-1333): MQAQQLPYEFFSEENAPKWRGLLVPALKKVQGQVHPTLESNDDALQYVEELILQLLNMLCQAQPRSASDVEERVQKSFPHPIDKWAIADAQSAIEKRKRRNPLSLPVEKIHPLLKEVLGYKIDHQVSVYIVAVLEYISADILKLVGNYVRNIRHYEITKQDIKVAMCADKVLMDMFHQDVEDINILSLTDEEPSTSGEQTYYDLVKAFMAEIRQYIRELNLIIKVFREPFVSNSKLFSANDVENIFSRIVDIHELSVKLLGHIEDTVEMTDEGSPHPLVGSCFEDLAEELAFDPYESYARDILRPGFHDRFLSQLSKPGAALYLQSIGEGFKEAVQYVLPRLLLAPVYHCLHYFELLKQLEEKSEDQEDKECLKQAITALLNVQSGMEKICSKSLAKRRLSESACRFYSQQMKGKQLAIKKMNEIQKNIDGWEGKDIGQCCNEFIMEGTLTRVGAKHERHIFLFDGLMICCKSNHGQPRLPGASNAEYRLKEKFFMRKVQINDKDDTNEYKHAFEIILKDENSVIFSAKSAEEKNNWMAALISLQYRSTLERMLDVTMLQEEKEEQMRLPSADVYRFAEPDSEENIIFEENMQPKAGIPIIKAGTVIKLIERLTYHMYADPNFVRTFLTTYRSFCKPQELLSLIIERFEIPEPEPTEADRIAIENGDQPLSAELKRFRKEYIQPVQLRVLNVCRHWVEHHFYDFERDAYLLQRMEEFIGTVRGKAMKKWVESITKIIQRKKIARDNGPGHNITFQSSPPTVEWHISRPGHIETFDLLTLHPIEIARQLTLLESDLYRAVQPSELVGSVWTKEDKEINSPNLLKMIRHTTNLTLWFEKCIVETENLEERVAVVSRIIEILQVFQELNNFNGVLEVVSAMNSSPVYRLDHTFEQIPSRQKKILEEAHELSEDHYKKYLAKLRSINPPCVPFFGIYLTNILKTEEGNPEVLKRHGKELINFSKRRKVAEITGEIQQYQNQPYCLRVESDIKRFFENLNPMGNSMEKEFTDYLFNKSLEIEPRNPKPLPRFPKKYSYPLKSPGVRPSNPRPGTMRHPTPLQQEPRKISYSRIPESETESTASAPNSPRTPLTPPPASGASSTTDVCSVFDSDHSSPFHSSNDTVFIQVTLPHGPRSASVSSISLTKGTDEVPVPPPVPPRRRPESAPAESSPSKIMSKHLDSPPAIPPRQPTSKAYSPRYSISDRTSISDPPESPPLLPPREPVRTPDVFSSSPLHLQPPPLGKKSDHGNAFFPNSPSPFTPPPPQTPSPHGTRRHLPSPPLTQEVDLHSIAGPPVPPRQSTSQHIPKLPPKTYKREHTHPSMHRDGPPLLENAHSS
Assay: Inhibition of the binding of KRAS^G12C to SOS1
Settings: Tag1-SOS1 / Tag2-KRAS^G12C, 2 h incubation at room temperature; read-out: IC50 (nM), inhibitory activity on the binding of KRAS^G12C to SOS1
Procedure: • (1) Gradient dilution of the test compounds: 10 mM mother solution (dissolved in 100% DMSO) was added to a 384-well test plate, the final content of DMSO being 0.25%.
(2) 5 μL of Tag1-SOS1 solution was added to the test plate, and 5 μL of dilution buffer was added to the control group.
(3) 5 μL of Tag2-KRAS^G12C solution was added to the test plate.
(4) 10 μL of Anti-Tag1-Tb3+ and Anti-Tag2-XL665 detection solution were added to the test plate. The plate was centrifuged at 1000 rpm for 1 min and incubated at room temperature for 2 h.
(6) The IC50 values for the compounds were finally calculated using GraphPad Prism software, and a curve was fit and plotted.
The inhibitory activity of the compounds of the examples of the present invention on the binding of KRAS^G12C enzyme to SOS1 is shown in Table 1.

Row | SMILES | IC50 [nM]
1 | COc1cc2nc(C)nc(N[C@H](C)c3cc(N)cc(C(F)(F)F)c3)c2cc1OCC1(C(C)OC)CC1 (single isomer, unassigned) [Example 65A] | 18
2 | COc1cc2nc(C)nc(N[C@H](C)c3cc(N)cc(C(F)(F)F)c3)c2cc1OCC1(C(C)OC)CC1 (single isomer, unassigned) [Example 65B] | 7.3
3 | COc1cc2nc(C)nc(N[C@H](C)c3cccc(C(F)(F)C(C)(C)O)c3F)c2cc1OC[C@@H]1CCCN1C [Example 1] | 4.6
4 | COc1cc2nc(C)nc(N[C@H](C)c3cc(N)cc(C(F)(F)F)c3)c2cc1OC[C@@H]1CCCN1C [Example 2] | 8.5
5 | COc1cc2nc(C)nc(N[C@H](C)c3cc(N)cc(C(F)(F)F)c3)c2cc1OC[C@@H]1CCC(=O)N1C [Example 6, (S)-5-(((4-(((R)-1-(3-amino-5-(trifluoromethyl)phenyl)ethyl)amino)-7-methoxy-2-methylquinazolin-6-yl)oxy)methyl)-1-methylpyrrolin-2-one] | 13
6 | COc1cc2nc(C)nc(N[C@H](C)c3cc(N)cc(C(F)(F)F)c3)c2cc1OCCOC1CC1 [Example 7, (R)—N-(1-(3-amino-5-(trifluoromethyl)phenyl)ethyl)-6-(2-cyclopropoxy)-7-methoxy-2-meth ylquinazolin-4-amine] | 3.3
7 | COc1cc2nc(C)nc(N[C@H](C)c3cc(N)cc(C(F)(F)F)c3)c2cc1OCCN(C)C1CC1 [Example 8] | 1.9
8 | COc1cc2nc(C)nc(N[C@H](C)c3cccc(C(F)(F)C(C)(C)O)c3F)c2cc1OCCN(C)CC1CCC1 [Example 9] | 3.4
9 | COc1cc2nc(C)nc(N[C@H](C)c3cc(N)cc(C(F)(F)F)c3)c2cc1OCCN(C)CC1CCC1 [Example 10] | 2.9
10 | COc1cc2nc(C)nc(N[C@H](C)c3cc(N)cc(C(F)(F)F)c3)c2cc1OCC1(CN(C)C)CC1 [Example 11, (R)—N-(1-(3-amino-5-(trifluoromethyl)phenyl)ethyl)-6-((1-((dimethylamino)methyl)cyclopropyl)methoxy)-7-methoxy-2-methylauinazolin-4-amine] | 3.6
11 | COc1cc2nc(C)nc(N[C@H](C)c3cccc(C(F)(F)C(C)(C)O)c3F)c2cc1OCC1(CN(C)C)CC1 [Example 12] | 8.3
12 | COc1cc2nc(C)nc(N[C@H](C)c3cc(N)cc(C(F)(F)F)c3)c2cc1OCCN(C)S(C)(=O)=O [Example 13] | 2.5
13 | COc1cc2nc(C)nc(N[C@H](C)c3cc(N)cc(C(F)(F)F)c3)c2cc1OC[C@@H]1CCCN1C(C)=O [Example 14] | 16
14 | COc1cc2nc(C)nc(N[C@H](C)c3cc(N)cc(C(F)(F)F)c3)c2cc1OCC1(CN2CCOCC2)CC1 [Example 15, (R)—N-(1-(3-amino-5-(trifluoromethyl)phenyl)ethyl)-7-methoxy-2-methyl-6-((1-(morpholinylmethyl)cyclopropyl)methoxy)quinazolin-4-amine] | 6.9
15 | COc1cc2nc(C)nc(N[C@H](C)c3cccc(C(F)(F)F)c3F)c2cc1OC[C@@H]1CCCN1C(=O)OC(C)(C)C [Example 16] | 1090
16 | COc1cc2nc(C)nc(N[C@H](C)c3cccc(C(F)(F)F)c3F)c2cc1OC[C@@H]1CCCN1 [Example 17, N—((R)-1-(2-Fluoro-3-(trifluoromethyl)phenyl)ethyl)-7-methoxy-2-methyl-6-(((S)-pyrrolin-2-yl)methoxy)quinazolin-4-amine] | 70
17 | COc1cc2nc(C)nc(N[C@H](C)c3cccc(C(F)(F)F)c3F)c2cc1OC[C@@H]1CCCN1C [Example 18, N—((R)-1-(2-fluoro-3-(trifluoromethyl)phenyl)ethyl)-7-methoxy-2-methyl-6-(((S)-1-methylpyrrolin-2-yl)methoxy)quinazolin-4-amine] | 36
18 | COc1cc2nc(C)nc(N[C@H](C)c3cccc(C(F)(F)C(C)(C)O)c3F)c2cc1OCCN(C)CC1CC(F)(F)C1 [Example 19] | 9.4

— patent US20240336606A1 (Suzhou Zelgen Biopharmaceuticals Co., Ltd., priority 2020, published 2024)
